One may read the pIC50 as −log10 of the IC50, conventionally taken in molar units. By inhibition is commonly meant how much of the control response was suppressed.

pIC50: −log10 of the molar value. A value given as a limit tells only on which side of the number the result lay.

Experiment [1] concerns HCT-116. Kind of experiment: Cytotoxicity against Homo sapiens (human) HCT116 cells assessed as growth inhibition after 48 hr by MTT assay. Format: functional, cell-based. Particulars: for pIC50: HCT-116, 48 h.
Experiment [2] relates to Radical scavenging activity. In words: Antioxidant activity assessed as inhibition of DPPH free radicals at 400 uM after 30 min by microplate reader analysis relative to control. Format: functional.

Consider `CCCCCCCCCn1c[n+](Cc2ccc(C[n+]3cn(CCCCCCCCC)c4ccccc43)cc2)c2ccccc21`, for which, in experiment [1], the “growth inhibition (GI)” value was “Dose-dependent effect” and the pIC50 was 5.55. For the same molecule, the inhibition in experiment [2] was 14.8%.

For `CCCCCCCCCCn1c[n+](Cc2ccc(C[n+]3cn(CCCCCCCCCC)c4ccccc43)cc2)c2ccccc21`, in experiment [1], the “growth inhibition (GI)” value is “Dose-dependent effect” and the pIC50 is 5.48. Also, the inhibition in experiment [2] was 13.7%.

In the case of `O=c1[nH]cc(F)c(=O)[nH]1` [FLUOROURACIL], in experiment [1], the “growth inhibition (GI)” value is “Dose-dependent effect” and the negative-log IC50 (pIC50) was 4.72.

On to `CCCCCCCCn1c[n+](Cc2ccc(C[n+]3cn(CCCCCCCC)c4ccccc43)cc2)c2ccccc21`, for which, in experiment [1], the “growth inhibition (GI)” value was “Dose-dependent effect” and the negative logarithm of the IC50 (pIC50) was 6.05. Moreover, the inhibition in experiment [2] was 17.9%.

As for `O=C(O)c1cc(O)c(O)c(O)c1`, the inhibition in experiment [2] came to 77.7%.

Turning to `c1ccc2[nH]cnc2c1` [BENZIMIDAZOLE], in experiment [1], the “growth inhibition (GI)” value was “Dose-dependent effect” and the pIC50 was less than 3.70. The inhibition in experiment [2] turned out to be 21%.

The values above are taken from ChEMBL document CHEMBL3046173, “Synthesis, structure, anticancer, and antioxidant activity of para-xylyl linked bis-benzimidazolium salts and respective dinuclear Ag(I) N-heterocyclic carbene complexes (Part-II)” (Med Chem Res, 2013).
